Results from patent US9044426B2, “Antimicrobial peptides for treatment of infectious diseases” (Dr. Roland Berecz, priority 2011, dated 2015).
Where no end group is shown, it is not given here.

What follows are sequences tested on luminescent bacteria (assay: Luminescence screen of SPOT-synthesized peptides on luminescent bacteria, with recovery check). Conditions: 0.1 M Tris buffer pH 7.4, 20 mM glucose, luminescence after 4 hours, recovery inspected after 18 h.
Assay type: cell-based
Procedure: The peptides are synthesized using standard Fmoc-strategy on cellulose with the SPOT technology; they are positively charged peptides, which were then cleaved from the cellulose and solubilized in water. Peptides were transferred into wells containing luminescent bacteria, in 0.1 M Tris buffer (pH 7.4), containing 20 mM glucose. After 4 hours of incubation time, the luminescence was measured using a microtiter plate reader. Consequently, 50 μl of Mueller-Hinton media was added in order to check for recovery of the bacteria. The plates were manually inspected after 18 h of incubation time.
For “KFKWWRMLI (also: cellulose-bound) [KFKWWRMLI (SEQ ID NO.:10), peptide synthesized on cellulose with the SPOT technology]”, the antimicrobial activity was “showed antimicrobial activity”.
With “KRKKRFKWW (also: cellulose-bound) [KRKKRFKWW (SEQ ID NO.:29), peptide synthesized on cellulose with the SPOT technology]” the antimicrobial activity was “showed antimicrobial activity”.
“KRRWRIWLV (also: cellulose-bound) [KRRWRIWLV (SEQ ID NO.:15), peptide synthesized on cellulose with the SPOT technology]” was tested, and the antimicrobial activity was “showed antimicrobial activity”.
In the case of “LRRWIRIRW (also: cellulose-bound) [LRRWIRIRW (SEQ ID NO.:21), peptide synthesized on cellulose with the SPOT technology]”, the antimicrobial activity was “showed antimicrobial activity”.
With “RIRRWKFRW (also: cellulose-bound) [RIRRWKFRW (SEQ ID NO.:6), peptide synthesized on cellulose with the SPOT technology]” the antimicrobial activity was “showed antimicrobial activity”.
For “RKFRWWVIR (also: cellulose-bound) [RKFRWWVIR (SEQ ID NO.:22), peptide synthesized on cellulose with the SPOT technology]”, the antimicrobial activity was “showed antimicrobial activity”.
In the case of “RLKRWWKFL (also: cellulose-bound) [RLKRWWKFL (SEQ ID NO.:7), peptide synthesized on cellulose with the SPOT technology]”, the antimicrobial activity was “showed antimicrobial activity”.
For “RRRWWKLMM (also: cellulose-bound) [RRRWWKLMM (SEQ ID NO.:20), peptide synthesized on cellulose with the SPOT technology]”, the antimicrobial activity was “showed antimicrobial activity”.
In the case of “RTKKWIVWI (also: cellulose-bound) [RTKKWIVWI (SEQ ID NO.:28), peptide synthesized on cellulose with the SPOT technology]”, the antimicrobial activity was “showed antimicrobial activity”.
With “WKWRVRVTI (also: cellulose-bound) [WKWRVRVTI (SEQ ID NO.:27), peptide synthesized on cellulose with the SPOT technology]” the antimicrobial activity was “showed antimicrobial activity”.
“YRLRVKWKW (also: cellulose-bound) [YRLRVKWKW (SEQ ID NO.:26), peptide synthesized on cellulose with the SPOT technology]” was tested, and the antimicrobial activity was “showed antimicrobial activity”.
